Where two headings read alike, the source gives them in different places.
Legend:
[1] = In vivo pharmacokinetic study in rats, intravenous DUT without or with intravenous KET; set-up: species or system rat; details: for AUC(0-inf) / half-life / clearance / Vd: male, Sprague-Dawley, rat, iv, 2.5 mg/kg; for AUC(0-inf) / half-life: n = 4; for Vd: n = 4, read-out: Vss
Text: The animal experiment protocols used in the present study were approved by the Pusan National University-Institutional Animal Care and Use Committee for scientific care and ethical procedures (Busan, Korea; approval date: 01/05/2018; approval number: PNU-2018-1848). Male Sprague–Dawley rats (8-week-old; approximately 250 g) were purchased from DBL Co., Ltd. (Incheon, Korea). The rats were acclimatized in a clean room of the Laboratory Animal Center of Pusan National University (Busan, Korea) for 1 week. Then, they were fasted for 12 h prior to the pharmacokinetic experiment and then anesthetized by intramuscular injection of Zoletil at a dose of 20 mg/kg. The femoral vein and artery of the rats were cannulated with a polyethylene tube (BD Medical; Franklin Lakes, NJ, USA). At approximately 4–6 h after the surgery for cannulation, an intravenous dose of DUT (2.5 mg/kg) simultaneously with or without intravenous KET (20 mg/kg) or an oral dose of DUT (5 mg/kg) simultaneously with or without intravenous KET (20 mg/kg) was administered to the rats. Drugs were dissolved in a vehicle consisting of dimethyl sulfoxide, ethanol, and polyethylene glycol 400 at a ratio of 10:5:85 (v/v/v). Blood (approximately 200 μL) was collected in heparin pre-treated microcentrifuge tubes via the femoral artery at 0, 1, 5, 15, 30, 60, 120, 180, 240, 360, 480, and 1200 min after the intravenous dose and at 0, 5, 15, 30, 60, 120, 150, 180, 240, 360, 480, and 1200 min after the oral dose. Following centrifugation of the blood samples at 3000× g at 4 °C for 10 min [19], 100 μL aliquots of plasma were stored at −80 °C.
The half maximal inhibitory concentration (IC50) of KET for the inhibition of the DUT metabolism was determined by the nonlinear regression analysis (GraphPad Prism ver. 5.01; GraphPad Software Inc., San Diego, CA, USA) based on the following Hill equation: y = Min + Max−Min/1 + (x/IC50)^-P where Max and Min are the initial and final y value, respectively, and the exponent P represents the Hill coefficient. Peak plasma concentration (Cmax) and time to reach Cmax (Tmax) were read directly from the observed data. Non-compartmental analysis was conducted to estimate pharmacokinetic parameters such as total area under plasma concentration versus time curve from time zero to time of last sampling (AUClast), total area under plasma concentration versus time curve from time zero to infinity (AUCinf), total plasma clearance (CL), volume of distribution at steady state (Vss), and terminal half-life (t1/2) using the NCA200 and 201 models of WinNonlin ver. 3.1 (Certara USA Inc., Princeton, NJ, USA).

type-2 5AR = test system: type-2 5AR; set-up: method as in PMID 16964191, PMID 16719800; details: previous in vitro studies; cited from earlier work
[2] = plasma, intravenous DUT 2.5 mg/kg with intravenous KET 20 mg/kg
[3] = plasma, intravenous DUT 2.5 mg/kg, DUT alone

C[C@]12C=CC(=O)N[C@@H]1CC[C@@H]1[C@@H]2CC[C@]2(C)[C@@H](C(=O)Nc3cc(C(F)(F)F)ccc3C(F)(F)F)CC[C@@H]12 [DUT, Dutasteride]
hepatic extraction ratio ([1]; calculated as CLH/QH, QH 50–80 mL/min/kg): 0.039–0.062 | AUC(0-inf) [1, 2]: 41800 ng·h/mL | half-life [1, 2]: 51 ± 5.98 h | clearance ([1]; plasma, intravenous DUT 2.5 mg/kg with intravenous KET 20 mg/kg, n = 4, read-out: CL): 1.02 ± 0.16 mL/min/kg | Vd [1, 2]: 4.41 ± 0.373 L/kg | AUC(0-inf) [1, 3]: 19100 ng·h/mL | half-life [1, 3]: 26.8 ± 3.27 h | clearance ([1]; plasma, intravenous DUT 2.5 mg/kg, DUT alone, n = 4, read-out: CL): 2.19 ± 0.16 mL/min/kg | Vd [1, 3]: 4.9 ± 0.326 L/kg | clearance ([1]; whole blood, intravenous DUT 2.5 mg/kg, calculated as CL/RB, mean value, read-out: total blood clearance (CLB)): 3.08 mL/min/kg | more potent inhibition of type-2 5AR compared to finasteride (type-2 5AR): 2.5 fold
